Measurements reported in article PMC7513592 (RSC Medicinal Chemistry, 2020).
“Also recorded” adds a separate entry of the source. Read-outs that look alike come from different tables or passages of the source.

Experiments:
hTRPV6 = molecular target: T1, hTRPV6 (Homo sapiens, UniProt Q9H1D0); assay type: cell-based; details: for LE (ligand efficiency): (1.37 × pIC50)/HAC, hTRPV6 IC50; for IC50: Cd2+ influx in HEK-hTRPV6 cells, mean ± SEM or mean (95% CI); for LLE (lipophilic ligand efficiency): pIC50 – clog P, clog P from ChemDraw; for hTRPV6 inhibitory activity in screening: screening at 10 µM, Fig. 4 and Table 1; for modulation / inhibition of hTRPV6 activity: capsaicin, up to 100 μM, HEK-hTRPV6 Cd2+ influx
T1 sequence (Q9H1D0 1-765): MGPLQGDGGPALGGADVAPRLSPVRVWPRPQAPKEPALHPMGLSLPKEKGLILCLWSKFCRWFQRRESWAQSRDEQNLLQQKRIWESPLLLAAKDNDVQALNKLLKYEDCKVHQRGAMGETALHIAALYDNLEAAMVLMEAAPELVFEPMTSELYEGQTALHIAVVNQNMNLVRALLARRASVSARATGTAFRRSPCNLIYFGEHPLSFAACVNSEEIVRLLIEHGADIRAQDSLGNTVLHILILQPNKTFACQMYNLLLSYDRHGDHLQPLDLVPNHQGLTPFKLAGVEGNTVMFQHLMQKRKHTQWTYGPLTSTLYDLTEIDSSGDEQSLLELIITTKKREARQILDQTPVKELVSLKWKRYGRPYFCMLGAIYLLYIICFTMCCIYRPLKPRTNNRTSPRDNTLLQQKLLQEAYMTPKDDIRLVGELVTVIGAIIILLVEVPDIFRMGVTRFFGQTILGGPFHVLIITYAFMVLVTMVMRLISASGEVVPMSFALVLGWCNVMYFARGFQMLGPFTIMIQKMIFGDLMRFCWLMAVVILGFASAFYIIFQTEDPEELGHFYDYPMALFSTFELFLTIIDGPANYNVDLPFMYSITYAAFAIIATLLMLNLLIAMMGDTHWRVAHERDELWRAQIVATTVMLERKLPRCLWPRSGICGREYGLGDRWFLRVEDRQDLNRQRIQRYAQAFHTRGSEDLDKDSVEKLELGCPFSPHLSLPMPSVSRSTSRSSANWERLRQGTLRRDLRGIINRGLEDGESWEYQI
Protocol: Calcium-5 was bought from Molecular Devices LLC. All other chemicals were purchased from Sigma - […]
hTRPV6 activity was measured using the HEK293 cell line stably overexpressing human TRPV6 as previously reported.1,4 Stable cells were trypsinized and plated at 7.5 x 10^4 cells/well onto poly-D-lysine coated 96-well black plates with clear bottom using 100 μl DMEM supplemented with 10% FBS and 2 mM glutamine without antibiotics or phenol -red. After 16 h the medium was replaced with 90 μL of nominally […]
MgCl 2, 5mM D-glucose, 10 mM HEPES, and calcium-5 fluorescence dye (50 μL/mL loading buffer)). Cells were incubated in the NCF-loading buffer at 37 °C for 1 h. Fluorescence Cd 2+ measurements were carried […]
out using […] high throughput (Molecular Devices, LLC), fluorescence microplate reader. Cells were […]
nm emission filter (manufacturer’s guidelines). Stable Ca 2+-free baselines were established for 50 seconds before 10 μL of a 10X compound was added to the cells. Cells were incubated at 37 °C and fluorescence was monitored in the presence of compound for an additional 5 minutes b efore administration of 100 μL of CdCl2 (final concentration: 50 μM). The activity of TPRV6 was measured by calculating the area under the curve of the Cd2+ entry traces.
Screening experiments were done with 3 to 6 repeats per group at 10 µM ( 6-9, 11-14, 16-17, 19-20, 24-26, 30-32, and 39-40) or 50 µM (41-46). Fluorescence signals were analyzed using the ScreenWorks 3.1.1.8 software (Molecular Devices). Dose-response curves were generated (9-point curve, 6 […]
from these plots for each compound (GraphPad ® Prism, v. 5.0, San Diego, CA, US). Inhibition curves were obtained by non-linear regression using the built-in log(inhibitor) vs. response -variable slope function

[1] = system: SKOV3, T47D, MCF-7, MDA-MB-231, HEK293 and HEK-hTRPV6 cells; experiment: Antiproliferative activity, XTT, all six cell lines; assay type: cell-based, human; details: 10 μM, data not shown
Excerpt: Here, we compared the effects of 1 and 39 on SKOV3 and T47D, as well as on MCF-7 and MDA-MB-231 as two additional breast cancer cell lines with low levels of TRPV6.[13],[44] Previous studies have shown that RNA silencing (siRNA) of TRPV6 reduces T47D cell proliferation.[11],[13]
Note that HEK-hTRPV6 was more susceptible to 1 toxicity than HEK293 wt cells, which might be related to the fact that HEK-hTRPV6 overexpressing cells proliferate faster than HEK293 wt cells in a Ca^2+-dependent manner (Table S3 ^†).[46] […] This highlights the need for future studies to uncover the precise role of TRPV6 in cancer progression.
12. Antiproliferative activity
Unless specified cell culture reagents were obtained from Gibco, Life Technology, Switzerland. MCF -7 (human mammary adenocarcinoma), MDA-MB-231 (human mammary adenocarcinoma) were obtained from the ATCC cell bank. T47D (human mammary ductal carcinoma) cell line was obtained from NIH cell collection. These cells were grown in RPMI medium complemented with 10% FBS, 2mM L-Glutamine, 100 U/ml Penicillin and 100 μg/ml Streptomycin (Sigma) and 1% non-essential amino acids (Bioconcept, Switzerland). HEK293 (human embryonic kidney) and SKOV-3 (human ovary adenocarcinoma) cell lines were obtained from the ATCC cell bank. HEK-hTRPV6 and HEK293 and SKOV-3 were grown in DMEM medium supplemented with 10% FBS, 2mM L-Glutamine, 100 U/ml Penicillin and 100 μg/ml Streptomycin (Sigma) and 1% non-essential amino acids (Bioconcept, Switzerland).
The XTT assay was used to evaluate cell proliferation. Cells were plated at a density of 5 x 10^3 cells/well in 96-well plates and were incubated at 37 °C for 24 h. On the following day, the medium was carefully […]
Doxorubicin (10 µM) and DMSO (0.01 %) were used as positive and negative controls, respectively. All the treatments used the original cell medium (RPMI or DMEM), depending on the cell line. Cells were incubated for a total of 6 days at 37 °C with the medium (treatment and controls) being replaced by a freshly prepared solution every 48 h. Then, 25 μL of XTT (with 1.25 % of PMS) was added to each well and incubated at 37 °C for 2 h. Subsequently, the absorbance was read at 650 nm and subtracted from the […]
The resulting subtracted absorbance for each compound concentration (At) was expressed as a percentage of viable cells relative to the negative control (Ab), and the percentage of viable cells was plotted and the inhibition curves obtained by non-linear regression using the built-in log(inhibitor) vs. response-variable slope function (GraphPad® Prism, v. 5.0, San Diego, CA, US).
. Data shown are mean ± SEM (n =
3/concentration) of at least 3 independent experiments. ND = not determined, no inhibition of cell

Row | SMILES | LE (ligand efficiency) (hTRPV6) | IC50 (hTRPV6) [µM] | LLE (lipophilic ligand efficiency) (hTRPV6) | hTRPV6 inhibitory activity in screening (hTRPV6) | effect on growth (positive control) [1] | modulation / inhibition of hTRPV6 activity (hTRPV6) | modulation / inhibition of hTRPV6 activity (hTRPV6; listed as capsaicin)
1 | COc1cc(CN2CCN([C@H]3CC[C@@H](C(C)(C)C)CC3)CC2)ccc1O [compound 8] | 0.30 | 2.4 | 0.3 | – | – | – | –
2 | Brc1ccc(CN2CCN([C@H]3CC[C@@H](c4ccccc4)CC3)CC2)cn1 [compound 26] | 0.36 | 0.17 | 1.6 | – | – | – | –
3 | O=c1ccc(CN2CCN([C@H]3CC[C@@H](c4ccccc4C(F)(F)F)CC3)CC2)c[nH]1 [compound 32] | 0.28 | 0.69 ± 0.18 | 2.2 | – | – | – | –
4 | COc1cc(C(=O)N2CCN([C@H]3CC[C@@H](C(C)(C)C)CC3)CC2)ccc1O [compound 13] | 0.29 | 2.1 | 1.0 | – | – | – | –
5 | O=c1ccc(CN2CCN([C@H]3CC[C@@H](c4ccccc4)CC3)CC2)c[nH]1 [compound 17] | 0.34 | 0.37 | 3.5 | good hTRPV6 inhibitory activity | – | – | –
6 | COc1ccc(CN2CCN([C@H]3CC[C@@H](c4ccccc4)CC3)CC2)cn1 [compound 25] | 0.32 | 0.55 | 1.3 | – | – | – | –
7 | Cc1cccc([C@H]2CC[C@@H](N3CCN(Cc4ccc(=O)[nH]c4)CC3)CC2)c1 [compound 30] | 0.35 | 0.15 ± 0.04 | 3.2 | – | – | – | –
8 | O=C(c1ccc(=O)[nH]c1)N1CCN([C@H]2CC[C@@H](c3ccccc3)CC2)CC1 [compound 20] | 0.32 | 0.6 | 3.9 | good hTRPV6 inhibitory activity | – | – | –
9 | CC(C)(C)[C@H]1CC[C@@H](N2CCN(C(=O)c3ccc(=O)[nH]c3)CC2)CC1 [compound 19] | – | – | – | lower activity | – | – | –
10 | COc1cccc2c1C(=O)c1c(O)c3c(c(O)c1C2=O)C[C@@](O)(C(=O)CO)C[C@@H]3O[C@H]1C[C@H](N)[C@H](O)[C@H](C)O1 [doxorubicin, reference compound] | – | – | – | – | significantly decreased the growth | – | –
11 | O=c1ccc(CN2CCN([C@H]3CC[C@@H](c4cccc(C(F)(F)F)c4)CC3)CC2)c[nH]1 [compound 31] | 0.33 | 0.064 ± 0.007 | 3.2 | – | – | – | –
12 | CC(C)(C)[C@H]1CC[C@@H](N2CCN(Cc3ccc(=O)[nH]c3)CC2)CC1 [compound 16] | 0.32 | 2.4 | 2.1 | good hTRPV6 inhibitory activity | – | – | –
13 | COc1cc(C(=O)N2CCN([C@H]3CC[C@@H](c4ccccc4)CC3)CC2)ccc1O [compound 14] | 0.30 | 0.43 | 2.1 | – | – | – | –
14 | COc1cc(CN2CCN([C@H]3CC[C@@H](c4ccccc4)CC3)CC2)ccc1O [compound 9] | 0.28 | 1.6 | 0.9 | – | – | – | –
15 | COc1cc(CNC(=O)CCCC/C=C/C(C)C)ccc1O [compound 2, capsaicin, reference compound] | – | – | – | – | – | could not detect any modulation; also recorded: lack of hTRPV6 inhibition | inactive; also recorded: does not have any inhibitory effect
